Measurements taken from article PMC5847527, “Identification of a novel 2-oxindole fluorinated derivative as in vivo antitumor agent for prostate cancer acting via AMPK activation” (Scientific Reports, 2018).

What was measured:
PNT2 cells = test: Cell viability by MTT assay, PNT2 normal prostate cells; format: cell-based, human
Method: (§1) Figure 3 Comparison of the effect of 2-oxindole fluorinated derivatives on the proliferation of human prostate cancer cells. (A) Normal (PTN2 and RWPE-1) and cancer (PC3,DU145 and LNCaP) prostate cells were treated with different doses of the compounds for 24 hours and cell viability was monitored by MTT assay. […] (C) PC-3, DU145 and LNCaP cells were treated with 25 µM of compound 8c for different times. Values were normalized with the control and represent the mean ± SD of at least three independent experiments. *p < 0.05 and **p < 0.01 compared to control by the Student’s - test.
(§2) Human prostate cancer epithelial PC-3, DU145 and LNCaP and human prostate normal RWPE-1 cells were purchased from American Type Culture Collection (ATCC CRL-1435 CRL-1740 and CRL 11609 respectively) (Rockville, MD, USA). The human prostate normal PNT2 cell line was purchased to ECACC (European Collection of Cell cultures, Salisbury, SP4 0JG, UK). Cells were routinely grown in RPMI 1640 medium supplemented with 100 IU/ml penicillin G sodium, 100 µg/ml streptomycin sulfate, 0.25 µg/ml amphotericin B (Invitrogen, Paisley, UK) and 10% fetal calf serum. Cells were used at passages between 10–20. For treatment experiments, cells were plated and grown over night, the medium was then replaced with serum-free RPMI 1640 for 24 hours and then incubated with different doses of the compounds for the indicated times.
(§3) Cell viability was determined by 3-(4,5-dimethylthiazol-2-yl)-2,5-diphenyltetrazolium bromide (MTT) (Sigma-Aldrich) method. […] The optical density in each well was evaluated by measurement of absorbance at 490 and 650 nm using a microplate reader (ELX 800 Bio-Tek Intruments, INC). IC50 values were calculated using GraphPad Prism vs 6.0 (GraphPad Software, Inc, La Jolla, CA, USA). Cell viability was also determined by counting viable and dead cells by Trypan blue staining. Trypan blue positive and negative cells were counted using a Countess^TM automated cell counter (Invitrogen, Carlsbad, CA, USA). Results were expressed in relation to total number of cells counted.

RWPE-1 cells = test: Cell viability by MTT assay, RWPE-1 normal prostate cells; format: cell-based, human
Method: as §1, §2, §3

AMPK = target: T1, AMPK (Homo sapiens, UniProt Q13131); test: AMPK and ACC phosphorylation by Western blot in PC-3 cells; format: cell-based; details: 25 µM, 1 hour
T1 construct: endogenous in cells; host or cells: PC-3, DU145, LNCaP
From the text: To investigate the effect of the compounds on AMPK activity at cellular level, compounds 8a-c and 9a-b were selected to perform AMPK phosphorylation assays in human prostate cancer cell lines. We use the PC-3 cell line as it is androgen-resistant and represents the advanced and aggressive stage of prostate cancer. […] AMPK inhibits lipogenic pathway through phosphorylation of its well-known substrate acetyl-CoA carboxylase (ACC). To confirm the modulation of AMPK activity in prostate cells by the compounds, we determined levels of phosphorylated ACC in 2-oxindole fluorinated derivatives-treated cells. […] It is worthy to note that the highest ACC phosphorylation was obtained with compound 8c denoting a powerful activity of this compound in PC-3 cells.
Figure 2 Effect of 2-oxindole fluorinated derivatives on AMPK activity in prostate cancer cells. (A) PC-3, DU145 and LNCaP cells were treated with 25 µM of the selected 2-oxindole fluorinated derivatives for 1 hour. Levels of the phosphorylated AMPK (pAMPK), phosphorylated ACC (pACC) and their total forms were determined by Western blot. Upper panel, a representative Western blot of three different experiments. β-tubulin (β-Tub) serves as a loading control. […] Lower panels, densitometric analyses of bands represented as the mean of the ratio pAMPK/AMPK or pACC/ACC ± SD of three different experiments. *p < 0.05 compared with the controls by one-way ANOVA followed by Fisher’s LSD test; ^#p < 0.05 compared with 2-oxindole fluorinated derivates or with the AMPK activators AMP or A769662 by one-way ANOVA followed by Tukey test.
as §2
Cells were lysed in Lysis buffer (50 mM Tris pH 7.4, 0.8 M NaCl, 5 mM MgCl2, 0.1% Triton X-100) containing Protease Inhibitor and Phosphatase inhibitor Cocktails (Roche, Basel, Switzerland). Protein concentrations were measured by BioRad™ protein assay kit (Richmond, CA, USA). Equal amount of protein (20 μg) from each sample was separated on 8% SDS–PAGE gels and transferred to PVDF membranes (BioRad). The membranes were blocked with blocking buffer (1× TBS, 0.1% Tween 20 with 5% w/v fat-free dry milk), washed and incubated with primary antibodies at 4 °C for 12 h. The membranes were subsequently washed with TBS-T (1× TBS and 0.1% Tween 20) and incubated with horseradish peroxidase-conjugated anti-mouse or anti-rabbit IgG antibodies (Sigma, St Louis, MO, USA) at room temperature for 1 h. The immune complex was visualized with an ECL system (Cell Signaling Technology). Films were analyzed by densitometry. The anti-pAMPKα1-thr172, pACC-ser79, pP53, P21, pRaptor and the antibodies against the corresponding total forms were obtained from Cell Signaling Technology (Danvers, MA, USA). The anti-caspase 3 and anti-procaspase 3 were from Santa Cruz Biotechnology (Dallas, Texas, USA). The anti-HIF1A was from Novus Biologicals LLC (Littleton, CO, USA). The anti-Cyclin D1 antibody was obtained from ThermoFisher (Alcobendas, Madrid, Spain). All the other chemicals were obtained from Sigma (St. Louis, MO, USA).

T1 sequence (Q13131 whole entry): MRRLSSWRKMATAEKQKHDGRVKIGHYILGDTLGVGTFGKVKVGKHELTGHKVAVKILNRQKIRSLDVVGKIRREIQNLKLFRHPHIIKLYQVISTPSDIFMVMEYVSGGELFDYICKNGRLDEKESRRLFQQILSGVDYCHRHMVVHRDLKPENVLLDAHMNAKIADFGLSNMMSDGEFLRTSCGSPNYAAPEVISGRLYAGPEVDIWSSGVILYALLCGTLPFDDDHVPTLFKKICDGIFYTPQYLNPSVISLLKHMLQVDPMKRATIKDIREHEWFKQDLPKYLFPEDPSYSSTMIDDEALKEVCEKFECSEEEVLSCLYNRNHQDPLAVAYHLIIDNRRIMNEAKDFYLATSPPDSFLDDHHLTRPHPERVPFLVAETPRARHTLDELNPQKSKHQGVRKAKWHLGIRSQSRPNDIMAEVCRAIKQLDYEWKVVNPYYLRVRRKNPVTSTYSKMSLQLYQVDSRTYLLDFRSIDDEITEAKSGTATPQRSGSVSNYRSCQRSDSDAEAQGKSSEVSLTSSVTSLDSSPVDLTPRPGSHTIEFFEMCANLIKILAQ
T1 sequence (Q9Y478 2-270 partner limits assumed): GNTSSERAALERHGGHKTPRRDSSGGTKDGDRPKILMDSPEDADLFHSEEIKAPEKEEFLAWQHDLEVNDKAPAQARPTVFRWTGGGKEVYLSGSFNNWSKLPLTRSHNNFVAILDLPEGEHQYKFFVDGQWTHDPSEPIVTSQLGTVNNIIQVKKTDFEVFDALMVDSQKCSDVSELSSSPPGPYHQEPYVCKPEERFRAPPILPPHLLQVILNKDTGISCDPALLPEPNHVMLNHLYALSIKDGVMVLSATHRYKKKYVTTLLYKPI
T1 sequence (P54619 whole entry partner): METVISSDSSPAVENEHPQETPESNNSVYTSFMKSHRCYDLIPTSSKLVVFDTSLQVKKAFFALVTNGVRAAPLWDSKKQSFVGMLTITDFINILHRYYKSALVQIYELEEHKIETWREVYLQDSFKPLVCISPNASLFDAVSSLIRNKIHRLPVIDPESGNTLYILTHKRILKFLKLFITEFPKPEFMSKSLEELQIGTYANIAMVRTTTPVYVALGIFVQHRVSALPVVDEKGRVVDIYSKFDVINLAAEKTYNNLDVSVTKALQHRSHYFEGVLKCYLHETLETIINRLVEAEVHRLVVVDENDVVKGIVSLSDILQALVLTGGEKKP

**Q.** Which results are given for `O=C1Nc2ccccc2C1(F)Cc1ccc(-c2ccccc2)o1` (stereo not drawn) [Compound 8c, 3-fluoro-3-((5-phenylfuran-2-yl)methyl)indolin-2-one]?
**A.** IC50 (PNT2 cells; Homo sapiens, PNT2, MTT, 24 hours): 65 µM; inhibitory efficacy on cells viability at 50 μM (PNT2 cells; PNT2, 50 μM): 56%; IC50 (RWPE-1 cells; Homo sapiens, RWPE-1, MTT, 24 hours): > 1000 µM; inhibitory efficacy on cells viability at 50 μM (RWPE-1 cells; RWPE-1, 50 μM): 50%; ACC phosphorylation (pACC/ACC) (AMPK): augmented pACC; Thr172 phosphorylation of AMPK (pAMPK/AMPK) (AMPK; compared to controls): significant increase in Thr172 phosphorylation of AMPK
